How the values were obtained:
Format in all cases: in vivo
[1] = tested on: fall armyworm larvae (Spodoptera frugiperda); test: Spodoptera frugiperda spray test (maize leaf sections); details: 168 h
Outline: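 Percent kill of Spodoptera frugiperda caterpillars read at day 7. Larvae placed on dried Zea mays leaf pieces previously sprayed with test preparation, made from acetone plus DMF and diluted with emulsifier-containing water (1000 ppm).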

[2] = tested on: adult cat fleas (Ctenocephalides felis); test: Ctenocephalides felis in-vitro contact test, adult cat flea; details: 5 μg/cm^2 (=500 g/ha), after 48 hours
Procedure: Ctenocephalides felis—In-Vitro Contact Tests Adult Cat Flea
(§1) 9 mg compound is solved in 1 mL acetone and diluted with acetone to the desired concentration. 250 μL of the test solution is filled in 25 mL glass test tubes and homogeneously distributed on the inner walls by rotation and tilting on a shaking device (2 h at 30 rpm). With a compound concentration of 900 ppm, an inner surface of 44.7 cm^2 and a homogeneous distribution, a dose of 5 μg/cm^2 is achieved.
After the solvent has evaporated, each test tube is filled with 5-10 adult cat fleas (Ctenocephalides felis), closed with a perforated lid and incubated in a lying position at room temperature and relative humidity. After 48 hours efficacy is determined. The fleas are patted on the ground of the tubes and are incubated on a heating plate at 45-50° C. for at most 5 minutes. Immotile or uncoordinated moving fleas, which are not able to escape the heat by climbing upwards, are marked as dead or moribund.
An efficacy of 100% means all fleas are dead or moribund; 0% means no fleas are dead or moribund.

[3] = tested on: Rhipicephalus microplus larvae (strain Parkhurst, resistant against synthetic pyrethroids); test: Rhipicephalus (Boophilus) microplus in-vitro contact test, larval cattle tick; details: 5 μg/cm^2 (=500 g/ha), after 48 hours, read-out: efficacy (larvae dead or moribund)
Procedure: Rhipicephalus (Boophilus) Microplus—In-Vitro Contact Tests Larval Cattle Tick (Strain Parkhurst, Resistant Against Synthetic Pyrethroids)
as §1
After the solvent has evaporated, each test tube is filled with 20-50 cattle tick larvae (Rhipicephalus microplus), closed with a perforated lid and incubated in a horizontal position at 85% relative humidity and 27° C. in an incubator. After 48 hours efficacy is determined. The larvae are patted on the ground of the tubes and negative geotactic behavior is recorded.
An efficacy of 100% means all larvae are dead or moribund; 0% means no larvae are dead or moribund.

[4] = tested on: larvae of the banded cucumber beetle (Diabrotica balteata); test: Diabrotica balteata spray test; details: 168 h, 100 g/ha (=32 μg/well), wheat seeds, after 7 days, read-out: efficacy (seedling growth)
Outline: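 Efficacy in % was read 7 days after infesting with 10-20 larvae per unit. Before infestation, 1-day-germinated wheat seedlings (5 per well) were sprayed with the active ingredient, formulated in acetone and dimethylformamide plus emulsifier and diluted with water containing emulsifier.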

[5] = tested on: adult unfed cat fleas (Ctenocephalides felis); test: Ctenocephalides felis oral test; details: 48 h
Procedure: Ctenocephalides felis—Oral Test
(§2) Solvent: dimethyl sulfoxide
To produce a suitable preparation of active compound, 10 mg of active compound are dissolved in 0.5 mL solvent, and the concentrate is diluted with cattle blood to the desired concentration.
Approximately 20 adult unfed cat fleas (Ctenocephalides felis) are placed in flea chambers. The blood chamber, sealed with parafilm on the bottom, are filled with cattle blood supplied with compound solution and placed on the gauze covered top of the flea chamber, so that the fleas are able to suck the blood. The blood chamber is heated to 37° C. whereas the flea chamber is kept at room temperature.
After 2 days mortality in % is determined. 100% means all the fleas have been killed; 0% means none of the fleas have been killed.

[6] = tested on: green peach aphid (Myzus persicae); test: Myzus persicae oral test; details: 120 h
Procedure: Myzus persicae—oral test • Solvent: 100 parts by weight acetone
To produce a suitable preparation of active compound, 1 part by weight of active compound is mixed with the stated amount of solvent, and the concentrate is diluted with water to the desired concentration. 50 μL compound solution is filled in microtiter plates and 150 μL IPL41 insect medium (33%+15% sugar) is added to obtain a total volume of 200 μL per well. Afterwards the plates are sealed with parafilm through which a mixed population of the green peach aphid (Myzus persicae) can suck on the compound preparation.
(§3) After 5 days mortality in % is determined. 100% means all aphids have been killed and 0% means none of the aphids have been killed.

[7] = tested on: adult engorged female ticks (Rhipicephalus microplus); test: Rhipicephalus (Boophilus) microplus injection test; details: 168 h, 4 μg/animal, egg deposition after 7 days, read-out: efficacy (infertile eggs)
Procedure: Rhipicephalus (Boophilus) Microplus—Injection Test
as §2
To produce a suitable preparation of active compound, 10 mg of active compound are dissolved in 0.5 mL solvent, and the concentrate is diluted with solvent to the desired concentration.
Five adult engorged female ticks (Rhipicephalus microplus) are injected with 1 μL compound solution into the abdomen. The ticks are transferred into replica plates and incubated in a climate chamber.
After 7 days egg deposition of fertile eggs is monitored. Eggs where fertility is not visible are stored in a climate chamber till hatching after about 42 days. An efficacy of 100% means all eggs are infertile; 0% means all eggs are fertile.

[8] = tested on: adult flies Musca domestica strain WHO-N; test: Musca domestica test (MUSCDO surface treatment & contact assay); details: 24 hours after contact, read-out: efficacy (mortality); for mortality at 20 mg/m2: surface concentration 20 mg/m^2, 30 min exposure; for mortality at 4 mg/m2: surface concentration 4 mg/m^2, 30 min exposure
Procedure: Musca domestica Test (MUSCDO Surface Treatment & Contact Assay) • Solvent: Aceton+2000 ppm rapeseed oil methyl ester (RME)
(§4) In order to produce a sufficient, active ingredient containing solution it is necessary to solve the test compound in the solvent-mix (acetone at 2 mg/ml/RME 2000 ppm). This solution is pipetted onto a glazed tile and after evaporation of the acetone, adult flies of the species Musca domestica strain WHO-N are placed onto the dried surface. The exposure time is 30 minutes.
(§5) Mortality in percent (%) is determined 24 hours after contact of the insects to the treated surface. 100% mortality means that all tested insects are dead, whereas 0% means that no insect died.

[9] = tested on: adult mosquitoes Aedes aegypti strain MONHEIM; test: Aedes aegypti test (AEDSAE surface treatment & contact assay); details: 24 hours after contact, read-out: efficacy (mortality); for mortality at 4 mg/m2: surface concentration 4 mg/m^2, 30 min exposure; for mortality at 20 mg/m2: surface concentration 20 mg/m^2, 30 min exposure
Procedure: Aedes aegypti test (AEDSAE surface treatment & contact assay) • Solvent: Aceton+2000 ppm rapeseed oil methyl ester (RME)
as §4, with “mosquitoes” for “flies”, “Aedes aegypti” for “Musca domestica”, “MONHEIM” for “WHO-N”
as §5

[10] = tested on: green peach aphid (Myzus persicae); test: Myzus persicae spray test; details: foliar, 120 h, Chinese cabbage leaf disks, after 5 days
Procedure: Myzus persicae—Spray Test • Solvent: 78.0 parts by weight acetone • 1.5 parts by weight dimethylformamide • Emulsifier: alkylarylpolyglycol ether
To produce a suitable preparation of active compound, 1 part by weight of active compound is mixed with the stated amount of solvents and is diluted with water, containing an emulsifier concentration of 1000 ppm, to the desired concentration. Further test concentrations are prepared by dilution with emulsifier containing water.
Chinese cabbage (Brassica pekinensis) leaf disks infected with all instars of the green peach aphid (Myzus persicae), are sprayed with a preparation of the active ingredient of the desired concentration.
as §3

[11] = tested on: larvae of the southern green stink bug (Nezara viridula); test: Nezara viridula spray test; details: in Hordeum vulgare, 96 h
Outline: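 Mortality (%) of stink bug larvae on treated barley (Hordeum vulgare) was scored 4 days after infestation. Test solutions came from an acetone/DMF concentrate diluted with water containing 1000 ppm emulsifier and were sprayed onto plants before larvae were added.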

Compound	mortality at 100 g/ha [1] [%]	efficacy (fleas dead or moribund) [2] [%]	pest or weed control at 5 µg/cm2 [3] [%]	pest or weed control at 32 µg/disc, 100 g/ha [4] [%]	mortality at 100 ppm [5] [%]	mortality at 4 ppm [6] [%]	pest or weed control at 0.004 mg [7] [%]	mortality at 20 mg/m2 [8] [%]	mortality at 4 mg/m2 [9] [%]	mortality at 20 mg/m2 [9] [%]	mortality at 4 mg/m2 [8] [%]	mortality at 100 g/ha [10] [%]	mortality at 500 g/ha [11] [%]	mortality at 100 g/ha [11] [%]
CC(NC(=O)c1cc(Cl)cc(OC(F)(F)F)c1)c1ncnn1-c1ncc(C#N)s1 (centres unmarked) [I-28]	100	100	100	100	–	–	–	–	–	–	–	–	–	–
CC(NC(=O)c1cc(C(F)F)cc(C(F)F)c1)c1ncnn1-c1ncc(C#N)s1 (centres unmarked) [I-33]	100	80	90	100	100	100	100	80 to 100	80 to 100	80 to 100	–	–	–	–
CC(NC(=O)c1cc(OC(F)(F)F)cc(S(C)(=O)=O)c1)c1ncnn1-c1ncc(C#N)s1 (centres unmarked) [I-37]	100	80	–	100	100	100	100	–	–	–	–	–	–	–
C[C@H](NC(=O)c1cc(Br)cc(OC(F)F)c1)c1ncnn1-c1ncc(C#N)s1 [I-39]	100	80	90	100	100	100	100	80 to 100	–	80 to 100	90 to 100	–	–	–
C[C@H](NC(=O)c1cc(Br)cc(C(C)(F)F)c1)c1ncnn1-c1ncc(C#N)s1 [I-47]	100	–	90	100	–	–	–	80 to 100	80 to 100	80 to 100	90 to 100	90	–	–
C[C@H](NC(=O)c1cc(Cl)cc(C2(C#N)CC2)c1)c1ncnn1-c1ncc(C#N)s1 [I-52]	100	–	–	100	–	–	–	80 to 100	–	80 to 100	90 to 100	100	100	–
Cc1nc([C@H](C)NC(=O)c2cc(Br)cc(C#N)c2)n(-c2ncc(C(=O)N(C)CC#N)s2)n1 [I-75]	–	90	90	100	–	100	–	–	–	–	–	–	–	–
Cc1nc([C@H](C)NC(=O)c2cc(Cl)cc(I)c2)n(-c2ncc(C(=O)N(C)C)s2)n1 [I-76]	100	80	100	–	–	–	–	–	–	–	–	–	–	–
CC(NC(=O)c1cc(C(F)(F)F)cc(S(C)(=O)=O)c1)c1ncnn1-c1ncc(C#N)s1 (centres unmarked) [I-82]	100	80	90	80	100	100	100	–	–	–	–	–	–	90
Cc1nc([C@H](C)NC(=O)c2cc(C(F)(F)F)cc(S(C)(=O)=O)c2)n(-c2ncc(C(=O)N(C)C)s2)n1 [I-83]	–	80	–	–	100	100	100	–	–	–	–	–	–	–
Cc1nc([C@H](C)NC(=O)c2cc(C(F)(F)F)cc(C(F)(F)F)c2)n(-c2ncc(C#N)s2)n1 [I-90]	100	–	–	100	–	–	–	80 to 100	80 to 100	–	90 to 100	90	–	–
C[C@H](NC(=O)c1cc(Br)cc(C(C)(C)F)c1)c1ncnn1-c1ncc(C#N)s1 [I-99]	100	–	–	100	–	–	–	80 to 100	80 to 100	80 to 100	90 to 100	100	100	100
Cc1nc([C@H](C)NC(=O)c2cc(Br)cc(OC(F)(F)F)c2)n(-c2ncc(C(=O)N(C)CC3CC3)s2)n1 [I-124]	100	100	100	100	–	–	–	–	–	–	–	–	100	100
Cc1nc([C@H](C)NC(=O)c2cc(Br)cc(OC(F)(F)F)c2)n(-c2ncc(C(=O)N(C)C(C)C)s2)n1 [I-126]	100	80	100	100	–	–	–	–	–	–	–	–	–	–
